Experimental data published in patent US12714682B2, “Calixarene compounds and uses thereof” (UNIVERSITÄT WIEN, priority 2019, dated 2026).
“Also recorded” adds a separate entry of the source.

What was measured:
LDL-R [1] = assay: LDL-R immunofluorescence microscopy in HeLa cells; type: cell-based, human; settings: 50 and 500 μM, 48 hours
Protocol: In another set of experiments, HeLa cells were treated the same way (50 and 500 μM of SCA-744 for 48 hours). Cells were fixed with 4% paraformaldehyde solution for 10 min at RT and permeabilized with 0.1% Triton X-100 for 15 min at RT and analysed by immunofluorescence microscopy using the same anti-human LDLR antibody employed for the immunoblotting. This detection method was more sensitive, and indicated the presence of LDL-R even in control cells.

C57BL/6J mice = assay: LPS-induced acute lung inflammation model: respiratory function (plethysmography); type: in vivo; settings: 100 μg LPS intratracheal, measured 24 h after; SCA-744 60 mg/kg i.p. 4 doses; dexamethasone 5 mg/kg ip. 2 doses
Protocol: Acute lung inflammation was induced by intratracheal administration of 100 μg LPS (Escherichia coli O111:B4; Sigma Aldrich, St. Louis, MO, USA) dissolved in 60 μl sterile phosphate buffered saline (PBS) under ketamine (120 mg/kg ip.; Calypsol, Gedeon Richter Plc., Budapest, Hungary) and xylazine (6 mg/kg ip.; Sedaxylan, Eurovet Animal Health B.V., Bladel, Netherlands) anaesthesia. 24 h after administration, respiratory function parameters were assessed, and lung samples were harvested for histopathological evaluation.
SCA-744 (60 mg/kg) and its vehicle were injected intraperitoneally (i.p.), 24 h, 12 h, 20 min before and 12 h after intratracheal administration of LPS. […] 24 h and 20 min before LPS treatment. Respiratory function measurement was performed 24 h after LPS administration
Buxco FinePoint Non-invasive Airway Mechanics (NAM) double chamber plethysmography (DSI Harvard Bioscience Inc.) was used to monitor ventilatory and bronchoconstriction parameters in awake, restrained animals without the use of anesthesia. The plethysmograph measures the nasal and thoracic flows independently. […] After 10 minutes of acclimatization period baseline pulmonary functions were assessed, such as the frequency, tidal volume, minute ventilation, expiratory/inspiratory time, peak expiratory/inspiratory flow, and specific airway resistance, a measure of bronchoconstriction.

LDL-R [2] = assay: LDL-R immunoblot in HeLa cells; type: cell-based, human; settings: 50 or 500 μM, 24 or 48 hours, no signal in control
Protocol: As illustrated in the Table 1 (FIG. 10), the SCA-744 affects the expression of several genes involved in lipid metabolism, such as the Low-density Lipoprotein Receptor, a major determinant of cholesterol levels in plasma. LDLR. […] To assess directly the effect of SCA-744 on the level of LDL-R expression, HeLa cells were treated with SCA-744 at 50 or 500 μM concentrations for 24 or 48 hours. Cells were harvested, cell lysate prepared and then analysed by immunoblotting using an anti-human LDL-R antibody (C7: sc-18823, Santa Cruz Biotechnologies).

HELA cells = assay: Protection from H2O2 induced stress; type: cell-based
Protocol: Using an incubation time of 24 h, it was sufficient to determine the toxicity and rescue effect of SCA-744 in HELA cells.

[3] = Cytotoxicity, CellTiter-Glo cell viability; type: cell-based; settings: human, HEK 293 cells (printed as HEK 293 neuroblastoma cell lines), 72 h treatment, read-out: EC50 cytotoxicity (cell viability, ATP)
Protocol: FIG. 19.: In-vitro assessment of SCA-744 (A) and SCA-754 (B) cytotoxicity. Experiments were performed using HEK 293 […] cell lines. The effect of SCA-744 and SCA-754 on cell viability was assessed using a standard ATP, CellTiter-Glo® Luminescent Cell Viability Assay following 72 hours treatment.
In vitro assessment of cytotoxicity of SCA-744 and SCA-754 in mammalian cells. 72 h following SCA-744 and SCA-754-treatment, cell viability was assessed using a standard ATP method, CellTiter-Glo® Luminescent Cell Viability Assay.

Osteopontin (OPN) = assay: 15N-1H HSQC NMR binding to osteopontin
Protocol: In order to verify the predicted heparan sulfate mimicking activity of SCA-744, its physical interaction was probed with a prototypical HS-binding protein Osteopontin (OPN), a component of the extracellular matrix (ECM). To this end, NMR spectroscopy was used to directly probe the interaction and map the location of the interaction site along the protein backbone. The experimental strategy was as follows: First, ^15N-labelled OPN was prepared following well-established molecular biology technology techniques. Individual residue positions are directly monitored via the so-called ^15N-^1H Heteronuclear Single-Quantum Coherence (HSQC) spectroscopy, where individual cross peaks in the two-dimensional (2D) frequency spectrum corresponds to individual residue positions (amino acids) of the protein. Ligand binding changes the chemical environment of residues located in the binding site and leads to a change in the HSQC spectrum. Since the signal assignment is available, the residue positions which are affected by ligand binding can easily be identified by comparing HSQC spectra of the apo (ligand-free) and ligand-bound state of the protein (FIG. 7A). […] It is very convenient to analyze the chemical shift changes (induced by ligand binding) as a function of residue positions (FIG. 7B,C). Residues that display the largest chemical shift changes are typically part of the binding interface. […] Therefore, it can be concluded that SCA-744 and HS share the same ligand interaction sites and therefore are in competition for binding.

binding sites on OPN (chemical shift changes by residue) (Osteopontin (OPN); HS compared with SCA-744): overlapping binding sites
SMILES: O=S(=O)(O)c1cc2c(O)c(c1)Cc1cc(S(=O)(=O)O)cc(c1O)Cc1cc(S(=O)(=O)O)cc(c1O)Cc1cc(S(=O)(=O)O)cc(c1O)C2 [SCA-744, 4-sulfocalix[4]arene]
level of LDL-R (immunofluorescence, semi-quantitative) (LDL-R [1]): significantly increased the level of LDL-R in a concentration dependent manner | respiratory function parameters (fBPM, FRC, Te, Rpef, Ti) versus control animals (C57BL/6J mice): significantly improved; also recorded: did not induce statistically significant alterations | LDL-R protein (immunoblot) (LDL-R [2]): induces the expression of LDLR; also recorded: the LDL-R was detected in the cell lysates | EC50 (HELA cells; Homo sapiens, HELA, 24 h incubation, H2O2 50 mM, read-out: EC50 rescue from H2O2 toxicity): 0.2 µM | protection from H2O2 induced damage (HELA cells; mammalian cells, FIG. 20): protects against oxidative stress from H2O2 induced damage | EC50 at 72 h [3]: 2000 µM | binding to OPN (HSQC spectra ligand-free vs ligand-bound) (Osteopontin (OPN); 15N-labelled OPN): binds to a heparan sulfate binding protein, osteopontin; also recorded: unambigious proof for SCA-744 binding to OPN
